Measured values taken from PMC11571207, “Stereorandomized Oncocins with Preserved Ribosome Binding and Antibacterial Activity” (Journal of Medicinal Chemistry, 2024).
≈ marks a conversion by molar mass, not a printed value. Non-standard residues stand in square brackets, D forms with d. Residues, ends and D or L forms follow the SMILES beside them.

Columns and labels:
S. aureus COL (MRSA) = test: microbe, parasite or virus in culture; conditions: for MIC S. aureus, 12.5% MHB / MIC S. aureus, Full MHB: S. aureus COL (MRSA), 16–20 h at 37 °C; for MIC S. aureus, 12.5% MHB: 12.5% Müller–Hinton medium; for MIC S. aureus, Full MHB: full Müller–Hinton medium; for MIC S. aureus COL (MRSA): supplement CSV
Description: (§1) We tested antibacterial effects against the Gram-negative bacteria Escherichia coli, Klebsiella pneumoniae, Pseudomonas aeruginosa, and Acinetobacter baumannii and the Gram-positive methicillin-resistant Staphylococcus aureus (MRSA).
(§2) Bacterial growth assay (Figure S1), transmission electron microscopy (Figure S6), serum stability assay (Figure S7), circular dichroism spectral recording (Figures S8 and S9), antimicrobial and hemolysis activity assays (MIC and MHC), and vesicle leakage assay were carried out as described in earlier publications.[43],[44]
(§3) Minimum inhibitory concentration assay
(§4) Antimicrobial activity was assayed against P. aeruginosa PAO1, K. pneumoniae NCTC418, E. coli W3110, A. baumannii ATCC 19606, methicillin-resistant S. aureus COL (MRSA), and for selected peptides on P. aeruginosa PA14 and the polymyxin-B-resistant derivative PA14 2P4, as well as the clinical isolates ZEM-1A and ZEM9A, K. pneumoniae OXA-48, S. aureus Newman, Enterobacter cloacae and Burkholderia cenocepacia. The minimal inhibitory concentration (MIC) was determined by using broth microdilution method. A colo ny of bacteria was picked and grown in Luria-Bertani (LB) medium overnight at 37°C. For E. coli BW25113 sbmA::kan the medium was supplemented with 25 mg/L of kanamycin. The next day, the culture was then regrown in LB medium to log phase (OD600 = 0.6 to 0.8), which lasted approximately 4 h, and diluted to an OD600 of 0.022 in the desired medium. Stock solutions of 1 mg/mL of the samples were prepared in sterilized milliQ water and diluted to the beginning concentration of 64 μg/mL in 300 μL Mueller Hinton (MH)-medium. The diluted samples were added to first well of 96-well microtiter plate (TPP, untreated, Faust Laborbedarf, AG, Schaffhausen) and diluted serially by ½. Finally, 4 μL of the bacterial suspension was inoculated into the sample solutions (150 μL/well) with a final inoculation of about 5∙10^5 CFU/mL. The plates were then incubated at 37°C for 15-18h. For each assay, sterility (broth only) and growth control (broth with bacterial inoculum, without antibiotics) were checked with two columns in the plate. The next day, 15 μL of 3-(4,5-dimethylthiazol-2-yl)-2,5-diphenyltetrazolium bromide (MTT) was added to each well of the plate, such a way that MIC was defined as the lowest concentration of the peptide that inhibited visible growth of the tested

A. baumannii ATCC19606 = test: microbe, parasite or virus in culture; conditions: for MIC A. baumannii, 12.5% MHB / MIC A. baumannii, Full MHB: A. baumannii ATCC19606, 16–20 h at 37 °C; for MIC A. baumannii, 12.5% MHB: 12.5% Müller–Hinton medium; for MIC A. baumannii, Full MHB: full Müller–Hinton medium; for MIC A. baumannii ATCC19606: supplement CSV
Description: as §1, §2, §3, §4

P. aeruginosa PAO1 = test: microbe, parasite or virus in culture; conditions: for MIC P. aeruginosa, 12.5% MHB / MIC P. aeruginosa, Full MHB: P. aeruginosa PAO1, 16–20 h at 37 °C; for MIC P. aeruginosa, 12.5% MHB: 12.5% Müller–Hinton medium; for MIC P. aeruginosa, Full MHB: full Müller–Hinton medium; for MIC P. aeruginosa PAO1: supplement CSV
Description: as §1, §2, §3, §4

E. coli W3110 = test: microbe, parasite or virus in culture; conditions: for MIC E. coli, 12.5% MHB / MIC E. coli, Full MHB: E. coli W3110, 16–20 h at 37 °C, broth microdilution; for MIC E. coli, 12.5% MHB: 12.5% Müller–Hinton medium; for MIC E. coli, Full MHB: full Müller–Hinton medium; for MIC E. coli W3110: supplement CSV
Description: as §1, §2, §3, §4

K. pneumoniae NCTC 418 = test: microbe, parasite or virus in culture; conditions: for MIC K. pneumoniae, 12.5% MHB / MIC K. pneumoniae, Full MHB: K. pneumoniae NCTC 418, 16–20 h at 37 °C; for MIC K. pneumoniae, 12.5% MHB: 12.5% Müller–Hinton medium; for MIC K. pneumoniae, Full MHB: full Müller–Hinton medium; for MIC K. pneumoniae NCTC418: supplement CSV
Description: as §1, §2, §3, §4

human red blood cells = test: Hemolysis assay, minimum hemolytic concentration; conditions: for Haemolysis on hRBC, MHC: 2.5% human red blood cells (final) in 10 mM phosphate, 150 mM NaCl, pH 7.4, 25 °C, 4 h, visual inspection; for MHC human red blood cells: supplement CSV

SMILES | MIC S. aureus, 12.5% MHB (S. aureus COL (MRSA)) | MIC S. aureus, Full MHB (S. aureus COL (MRSA)) | MIC S. aureus COL (MRSA) (S. aureus COL (MRSA); 12.5% MH pH 7.4) | MIC S. aureus COL (MRSA) (S. aureus COL (MRSA); full MH pH 7.4) | MIC A. baumannii, 12.5% MHB (A. baumannii ATCC19606) | MIC A. baumannii, Full MHB (A. baumannii ATCC19606) | MIC A. baumannii ATCC19606 (A. baumannii ATCC19606; 12.5% MH pH 7.4) | MIC A. baumannii ATCC19606 (A. baumannii ATCC19606; full MH pH 7.4) | MIC P. aeruginosa, 12.5% MHB (P. aeruginosa PAO1) | MIC P. aeruginosa, Full MHB (P. aeruginosa PAO1) | MIC P. aeruginosa PAO1 (P. aeruginosa PAO1; 12.5% MH pH 7.4) | MIC P. aeruginosa PAO1 (P. aeruginosa PAO1; full MH pH 7.4) | MIC E. coli, 12.5% MHB (E. coli W3110) | MIC E. coli, Full MHB (E. coli W3110) | MIC E. coli W3110 (E. coli W3110; 12.5% MH pH 7.4) | MIC E. coli W3110 (E. coli W3110; full MH pH 7.4) | MIC K. pneumoniae, 12.5% MHB (K. pneumoniae NCTC 418) | MIC K. pneumoniae, Full MHB (K. pneumoniae NCTC 418) | MIC K. pneumoniae NCTC418 (K. pneumoniae NCTC 418; 12.5% MH pH 7.4) | MIC K. pneumoniae NCTC418 (K. pneumoniae NCTC 418; full MH pH 7.4) | other results
CC[C@@H](C)[C@@H](NC(=O)[C@@H](CCCNC(=N)N)NC(=O)[C@@H](CCCNC(=N)N)NC(=O)[C@H]1CCCN1C(=O)[C@H]1CCCN1C(=O)[C@H](CCCNC(=N)N)NC(=O)[C@@H]1CCCN1C(=O)[C@H](CCCNC(=N)N)NC(=O)[C@@H]1CCCN1C(=O)[C@H](CC(C)C)NC(=O)[C@H](Cc1ccc(O)cc1)NC(=O)[C@@H]1CCCN1C(=O)[C@@H]1CCCN1C(=O)[C@H](CCCCN)NC(=O)[C@H](CC(=O)O)NC(=O)[C@@H](N)C(C)C)C(=O)N[C@H](Cc1ccc(O)cc1)C(=O)N[C@H](CC(N)=O)C(=O)N[C@H](CCCNC(=N)N)C(N)=O [D8Cterm-Onc] (H-VDKPPYLPRPR[dP][dP][dR][dR][dI][dY][dN][dR]-NH2) | >64 / 64 μg/mL | >64 / 64 μg/mL | 64 µg/mL (≈ 26.8 µM) | >64 µg/mL | 8 µg/mL (≈ 3.35 µM) | 64 µg/mL (≈ 26.8 µM) | 8 µg/mL (≈ 3.35 µM) | 64 µg/mL (≈ 26.8 µM) | 4 µg/mL (≈ 1.67 µM) | > 64 µg/mL | 4 µg/mL (≈ 1.67 µM) | >64 µg/mL | 1 µg/mL (≈ 0.418 µM) | 16 µg/mL (≈ 6.69 µM) | 1 µg/mL (≈ 0.418 µM) | 16 µg/mL (≈ 6.69 µM) | 2 µg/mL (≈ 0.837 µM) | 4 µg/mL (≈ 1.67 µM) | 2 µg/mL (≈ 0.837 µM) | 4 µg/mL (≈ 1.67 µM) | Haemolysis on hRBC, MHC (human red blood cells): >1000 µg/mL; MHC human red blood cells (human red blood cells): >1000 µg/mL
CC[C@@H](C)[C@@H](NC(=O)[C@@H](CCCNC(=N)N)NC(=O)[C@@H](CCCNC(=N)N)NC(=O)[C@H]1CCCN1C(=O)[C@H]1CCCN1C(=O)[C@@H](CCCNC(=N)N)NC(=O)[C@@H]1CCCN1C(=O)[C@H](CCCNC(=N)N)NC(=O)[C@@H]1CCCN1C(=O)[C@H](CC(C)C)NC(=O)[C@H](Cc1ccc(O)cc1)NC(=O)[C@@H]1CCCN1C(=O)[C@@H]1CCCN1C(=O)[C@H](CCCCN)NC(=O)[C@H](CC(=O)O)NC(=O)[C@@H](N)C(C)C)C(=O)N[C@H](Cc1ccc(O)cc1)C(=O)N[C@H](CC(N)=O)C(=O)N[C@H](CCCNC(=N)N)C(N)=O [D9Cterm-Onc] (H-VDKPPYLPRP[dR][dP][dP][dR][dR][dI][dY][dN][dR]-NH2) | >64 / >64 μg/mL | >64 / >64 μg/mL | >64 µg/mL | >64 µg/mL | 4 µg/mL (≈ 1.67 µM) | 16 µg/mL (≈ 6.69 µM) | 4 µg/mL (≈ 1.67 µM) | 16 µg/mL (≈ 6.69 µM) | 4 µg/mL (≈ 1.67 µM) | 64 µg/mL (≈ 26.8 µM) | 4 µg/mL (≈ 1.67 µM) | 64 µg/mL (≈ 26.8 µM) | 2 µg/mL (≈ 0.837 µM) | 4 µg/mL (≈ 1.67 µM) | 2 µg/mL (≈ 0.837 µM) | 4 µg/mL (≈ 1.67 µM) | 2 µg/mL (≈ 0.837 µM) | 4 µg/mL (≈ 1.67 µM) | 2 µg/mL (≈ 0.837 µM) | 4 µg/mL (≈ 1.67 µM) | Haemolysis on hRBC, MHC (human red blood cells): >1000 µg/mL; MHC human red blood cells (human red blood cells): >1000 µg/mL
CC[C@H](C)[C@H](NC(=O)[C@H](CCCNC(=N)N)NC(=O)[C@H](CCCNC(=N)N)NC(=O)[C@@H]1CCCN1C(=O)[C@@H]1CCCN1C(=O)[C@H](CCCNC(=N)N)NC(=O)[C@@H]1CCCN1C(=O)[C@H](CCCNC(=N)N)NC(=O)[C@@H]1CCCN1C(=O)[C@H](CC(C)C)NC(=O)[C@H](Cc1ccc(O)cc1)NC(=O)[C@@H]1CCCN1C(=O)[C@H]1CCCN1C(=O)[C@H](CCCCN)NC(=O)[C@H](CC(=O)O)NC(=O)[C@@H](N)C(C)C)C(=O)N[C@@H](Cc1ccc(O)cc1)C(=O)N[C@@H](CC(N)=O)C(=O)N[C@@H](CCCNC(=N)N)C(N)=O [DP4-Onc] (H-VDK[dP]PYLPRPRPPRRIYNR-NH2) | >64 / 64 μg/mL | >64 / 64 μg/mL | 64 µg/mL (≈ 26.8 µM) | >64 µg/mL | 8 µg/mL (≈ 3.35 µM) | 64 µg/mL (≈ 26.8 µM) | 8 µg/mL (≈ 3.35 µM) | 64 µg/mL (≈ 26.8 µM) | > 16 µg/mL | > 64 µg/mL | >16 µg/mL | >64 µg/mL | 4 µg/mL (≈ 1.67 µM) | 16 µg/mL (≈ 6.69 µM) | 4 µg/mL (≈ 1.67 µM) | 16 µg/mL (≈ 6.69 µM) | 4 µg/mL (≈ 1.67 µM) | 32 µg/mL (≈ 13.4 µM) | 4 µg/mL (≈ 1.67 µM) | 32 µg/mL (≈ 13.4 µM) | Haemolysis on hRBC, MHC (human red blood cells): >1000 µg/mL; MHC human red blood cells (human red blood cells): >1000 µg/mL
CC[C@H](C)[C@H](NC(=O)[C@H](CCCNC(=N)N)NC(=O)[C@H](CCCNC(=N)N)NC(=O)[C@@H]1CCCN1C(=O)[C@@H]1CCCN1C(=O)[C@H](CCCNC(=N)N)NC(=O)[C@@H]1CCCN1C(=O)[C@H](CCCNC(=N)N)NC(=O)[C@@H]1CCCN1C(=O)[C@H](CC(C)C)NC(=O)[C@H](Cc1ccc(O)cc1)NC(=O)[C@H]1CCCN1C(=O)[C@@H]1CCCN1C(=O)[C@H](CCCCN)NC(=O)[C@H](CC(=O)O)NC(=O)[C@@H](N)C(C)C)C(=O)N[C@@H](Cc1ccc(O)cc1)C(=O)N[C@@H](CC(N)=O)C(=O)N[C@@H](CCCNC(=N)N)C(N)=O [DP5-Onc] (H-VDKP[dP]YLPRPRPPRRIYNR-NH2) | >64 / 64 μg/mL | >64 / 64 μg/mL | 64 µg/mL (≈ 26.8 µM) | >64 µg/mL | 16 µg/mL (≈ 6.69 µM) | > 64 µg/mL | 16 µg/mL (≈ 6.69 µM) | >64 µg/mL | > 16 µg/mL | > 64 µg/mL | >16 µg/mL | >64 µg/mL | 4 µg/mL (≈ 1.67 µM) | 32 µg/mL (≈ 13.4 µM) | 4 µg/mL (≈ 1.67 µM) | 32 µg/mL (≈ 13.4 µM) | > 16 µg/mL | > 64 µg/mL | >16 µg/mL | >64 µg/mL | Haemolysis on hRBC, MHC (human red blood cells): >1000 µg/mL; MHC human red blood cells (human red blood cells): >1000 µg/mL
